{"source": "paper PMC9010685", "about": "“Sensor dimer disruption as a new mode of action to block the IRE1-mediated unfolded protein response” (Computational and Structural Biotechnology Journal, 2022)", "molecular_target": "T1, IRE1 (IRE1α, Inositol requiring enzyme 1α) (Homo sapiens, UniProt O75460)", "T1 construct": "gene ERN1; recombinant IRE1 (aa 465–977, His & GST Tag); cytosolic domain", "T1 sequence (O75460 465-977)": "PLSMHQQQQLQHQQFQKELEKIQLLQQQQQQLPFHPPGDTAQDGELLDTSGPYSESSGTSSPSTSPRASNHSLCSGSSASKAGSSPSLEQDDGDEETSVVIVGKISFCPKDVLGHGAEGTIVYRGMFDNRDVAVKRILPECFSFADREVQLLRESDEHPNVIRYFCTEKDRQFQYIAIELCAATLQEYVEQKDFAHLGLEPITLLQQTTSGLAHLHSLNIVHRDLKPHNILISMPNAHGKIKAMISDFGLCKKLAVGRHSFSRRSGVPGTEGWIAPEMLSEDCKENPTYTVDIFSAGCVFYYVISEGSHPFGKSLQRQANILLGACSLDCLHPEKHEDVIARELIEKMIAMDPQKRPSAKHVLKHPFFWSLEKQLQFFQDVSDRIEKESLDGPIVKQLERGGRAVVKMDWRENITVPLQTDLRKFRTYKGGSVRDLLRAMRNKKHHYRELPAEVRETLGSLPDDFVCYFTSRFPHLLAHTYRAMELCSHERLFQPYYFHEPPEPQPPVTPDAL", "experiment": "in vitro fluorescence RNase assay, cleavage of XBP1 mini-probe (Cy5)", "type": "biochemical", "note": "Read-outs that look alike come from different tables or passages of the source.", "data": [{"smiles": "Nc1nc2[nH]cc(CCc3ccc(C(=O)N[C@@H](CCC(=O)O)C(=O)O)cc3)c2c(=O)[nH]1", "note": "[PMT, pemetrexed]", "values": [{"measurement": "IC50", "result": "260 ± 200", "unit": "nM"}]}, {"smiles": "C[C@@H]1O[C@@H](Oc2c(-c3ccc(O)c(O)c3)oc3cc(O)cc(O)c3c2=O)[C@H](O)[C@H](O)[C@H]1O", "note": "[Qi, quercitrin]", "values": [{"measurement": "IC50", "result": "230 ± 100", "unit": "nM"}]}, {"smiles": "NC[C@@H]1O[C@H](O[C@H]2[C@@H](O)[C@H](O[C@@H]3[C@@H](O)[C@H](N)C[C@H](N)[C@H]3O[C@H]3O[C@H](CN)[C@@H](O)[C@H](O)[C@H]3N)O[C@@H]2CO)[C@H](N)[C@@H](O)[C@@H]1O", "note": "[neomycin]", "values": [{"measurement": "IC50", "setting": "read-out: IC50", "result": "330 ± 300", "unit": "nM"}]}, {"smiles": "C[C@@H]1O[C@@H](OC[C@H]2O[C@@H](Oc3c(-c4ccc(O)c(O)c4)oc4cc(O)cc(O)c4c3=O)[C@H](O)[C@@H](O)[C@@H]2O)[C@H](O)[C@H](O)[C@H]1O", "note": "[rutin]", "values": [{"measurement": "IC50", "result": "530 ± 300", "unit": "nM"}]}]}
